Assay results from patent US9365572B2, “PI3K and/or mTOR inhibitor” (XUANZHU PHARMA CO., LTD., priority 2012, dated 2016).
pIC50: −log10 of the molar value.

Key:
Muscarinic M1 = Muscarinic M1 (Homo sapiens (Human), UniProt P11229); assay: Radioligand binding assay No. 252610; conditions: test substance 10 μM, read-out: Inhibitory rate (%), Muscarinic M1
Adenosine A1 = Adenosine A1 (Homo sapiens (Human), UniProt P30542); assay: Radioligand binding assay No. 200510; conditions: test substance 10 μM, read-out: Inhibitory rate (%), Adenosine A1
Adenosine A1, sequence (P30542 whole entry): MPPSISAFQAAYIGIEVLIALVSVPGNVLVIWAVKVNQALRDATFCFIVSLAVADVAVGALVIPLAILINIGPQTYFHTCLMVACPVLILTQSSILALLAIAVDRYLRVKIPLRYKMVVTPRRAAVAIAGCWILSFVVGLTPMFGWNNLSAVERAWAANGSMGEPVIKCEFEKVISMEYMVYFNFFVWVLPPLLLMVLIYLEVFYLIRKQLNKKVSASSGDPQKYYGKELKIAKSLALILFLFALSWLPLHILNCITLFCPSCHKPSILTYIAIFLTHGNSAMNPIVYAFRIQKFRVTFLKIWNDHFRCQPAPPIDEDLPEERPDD

Potassium Channel hERG = Potassium Channel hERG (Homo sapiens (Human), UniProt Q12809); assay: Radioligand binding assay No. 265900; conditions: test substance 10 μM, read-out: Inhibitory rate (%), Potassium Channel hERG
Potassium Channel hERG, sequence (Q12809 whole entry): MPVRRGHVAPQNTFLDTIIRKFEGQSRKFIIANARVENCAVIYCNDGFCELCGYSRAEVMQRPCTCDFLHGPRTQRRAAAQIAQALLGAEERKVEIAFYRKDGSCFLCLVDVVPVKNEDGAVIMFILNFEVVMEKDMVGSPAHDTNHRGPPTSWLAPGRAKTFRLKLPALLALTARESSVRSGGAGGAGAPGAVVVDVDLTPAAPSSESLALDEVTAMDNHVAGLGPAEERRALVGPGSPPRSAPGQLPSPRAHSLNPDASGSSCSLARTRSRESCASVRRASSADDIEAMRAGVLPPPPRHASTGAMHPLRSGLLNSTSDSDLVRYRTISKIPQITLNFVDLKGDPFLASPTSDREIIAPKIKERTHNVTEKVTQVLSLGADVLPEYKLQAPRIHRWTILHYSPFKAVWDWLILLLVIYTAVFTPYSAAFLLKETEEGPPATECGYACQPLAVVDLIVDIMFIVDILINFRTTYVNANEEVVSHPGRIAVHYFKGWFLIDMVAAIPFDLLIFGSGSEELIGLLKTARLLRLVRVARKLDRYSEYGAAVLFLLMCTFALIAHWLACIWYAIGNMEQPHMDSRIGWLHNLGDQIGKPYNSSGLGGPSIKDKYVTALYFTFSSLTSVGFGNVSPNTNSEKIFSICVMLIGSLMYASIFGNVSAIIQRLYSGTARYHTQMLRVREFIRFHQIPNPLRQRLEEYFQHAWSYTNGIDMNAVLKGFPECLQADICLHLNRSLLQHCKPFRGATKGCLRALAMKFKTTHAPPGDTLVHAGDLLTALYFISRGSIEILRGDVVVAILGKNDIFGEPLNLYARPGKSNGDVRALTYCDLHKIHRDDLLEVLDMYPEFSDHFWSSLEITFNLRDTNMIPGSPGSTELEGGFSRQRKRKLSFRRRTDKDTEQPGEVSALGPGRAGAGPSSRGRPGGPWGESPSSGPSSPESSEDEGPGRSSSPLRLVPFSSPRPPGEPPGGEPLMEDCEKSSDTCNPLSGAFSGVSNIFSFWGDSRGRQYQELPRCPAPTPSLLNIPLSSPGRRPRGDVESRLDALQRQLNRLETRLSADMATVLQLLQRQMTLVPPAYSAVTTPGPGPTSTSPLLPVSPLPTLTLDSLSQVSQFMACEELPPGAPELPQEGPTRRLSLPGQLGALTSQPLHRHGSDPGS

[1] = biological target: Serotonin (5-Hydroxytryptamine) 5-HT1A (Homo sapiens (Human), UniProt P08908); assay: Radioligand binding assay No. 271110; conditions: test substance 10 μM, read-out: Inhibitory rate (%), Serotonin (5-Hydroxytryptamine) 5-HT1A
Serotonin (5-Hydroxytryptamine) 5-HT1A, sequence (P08908 whole entry): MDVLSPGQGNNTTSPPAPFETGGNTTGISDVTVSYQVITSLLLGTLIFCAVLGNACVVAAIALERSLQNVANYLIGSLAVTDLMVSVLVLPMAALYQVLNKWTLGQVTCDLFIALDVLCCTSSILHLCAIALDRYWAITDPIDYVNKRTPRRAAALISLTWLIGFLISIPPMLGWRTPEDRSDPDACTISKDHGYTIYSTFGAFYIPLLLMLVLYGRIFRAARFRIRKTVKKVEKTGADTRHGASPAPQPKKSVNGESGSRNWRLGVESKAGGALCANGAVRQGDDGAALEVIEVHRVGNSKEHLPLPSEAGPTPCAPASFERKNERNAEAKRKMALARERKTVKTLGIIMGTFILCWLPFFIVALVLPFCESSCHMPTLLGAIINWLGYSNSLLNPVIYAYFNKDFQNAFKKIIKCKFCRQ

Muscarinic M2 = Muscarinic M2 (Homo sapiens (Human), UniProt P08172); assay: Radioligand binding assay No. 252710; conditions: test substance 10 μM, read-out: Inhibitory rate (%), Muscarinic M2
Muscarinic M2, sequence (P08172 whole entry): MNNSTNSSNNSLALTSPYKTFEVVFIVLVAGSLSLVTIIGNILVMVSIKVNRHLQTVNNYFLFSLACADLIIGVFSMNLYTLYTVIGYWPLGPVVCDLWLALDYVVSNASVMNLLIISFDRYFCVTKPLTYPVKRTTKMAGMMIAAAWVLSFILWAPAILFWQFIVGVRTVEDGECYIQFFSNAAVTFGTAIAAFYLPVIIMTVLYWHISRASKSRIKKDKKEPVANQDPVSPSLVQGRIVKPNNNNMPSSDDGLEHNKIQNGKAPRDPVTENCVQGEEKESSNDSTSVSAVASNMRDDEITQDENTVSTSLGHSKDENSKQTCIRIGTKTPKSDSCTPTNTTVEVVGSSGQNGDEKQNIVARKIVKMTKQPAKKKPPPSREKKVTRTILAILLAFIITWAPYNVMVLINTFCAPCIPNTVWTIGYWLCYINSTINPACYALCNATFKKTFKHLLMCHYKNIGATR

[2] = biological target: Transporter, Dopamine (DAT) (Homo sapiens (Human), UniProt Q01959); assay: Radioligand binding assay No. 220320; conditions: test substance 10 μM, read-out: Inhibitory rate (%), Transporter, Dopamine (DAT)
Transporter, Dopamine (DAT), sequence (Q01959 whole entry): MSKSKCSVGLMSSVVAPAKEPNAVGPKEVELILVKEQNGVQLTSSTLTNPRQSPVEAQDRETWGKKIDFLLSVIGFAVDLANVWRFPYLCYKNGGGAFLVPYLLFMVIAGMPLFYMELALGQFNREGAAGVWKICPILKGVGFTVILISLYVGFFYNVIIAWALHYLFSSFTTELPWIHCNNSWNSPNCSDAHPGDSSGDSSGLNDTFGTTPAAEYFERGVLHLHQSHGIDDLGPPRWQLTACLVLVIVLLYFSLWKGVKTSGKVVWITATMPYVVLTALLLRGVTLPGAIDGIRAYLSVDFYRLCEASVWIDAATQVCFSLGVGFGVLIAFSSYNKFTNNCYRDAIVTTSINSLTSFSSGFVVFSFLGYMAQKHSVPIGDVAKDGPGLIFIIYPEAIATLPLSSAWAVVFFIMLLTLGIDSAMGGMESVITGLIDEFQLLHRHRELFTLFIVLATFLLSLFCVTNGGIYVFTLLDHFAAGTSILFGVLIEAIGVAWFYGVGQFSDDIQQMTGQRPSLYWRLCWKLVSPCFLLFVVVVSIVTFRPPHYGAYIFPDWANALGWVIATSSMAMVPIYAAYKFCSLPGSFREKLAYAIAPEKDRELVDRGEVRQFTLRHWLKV

[3] = test system: Calcium Channel L-Type, Dihydropyridine; assay: Radioligand binding assay No. 214600; conditions: test substance 10 μM; rat
Transporter, GABA = assay: Radioligand binding assay No. 226400; conditions: test substance 10 μM; rat
mTOR = mTOR (Homo sapiens (Human), UniProt P42345); assay: mTOR enzymatic assay; type: biochemical; conditions: read-out: In vitro enzymatic activity (IC50) mTOR
Method: Assay 1-2: In Vitro Enzymatic Inhibitory Activity of the Present Compound
1. Preparation of Agents:
• 1.1 1-fold kinase buffer: 50 mM HEPES, pH 7.5, 10 mM MgCl2, 1 mM EGTA, 3 mM MnCl2, 0.01% Tween-20, 2 mM DTT; • 1.2 4-fold kinase solution: mTOR kinase was added to 1-fold kinase buffer to form 4-fold kinase solution with a final concentration of 2.5 nM; • 1.3 2-fold substrate and ATP solution: the substrate 4EBP1 and ATP were added to 1-fold kinase buffer to form 2-fold substrate solution with final concentration of 50 nM of 4EBP1 and 10.8 μM of ATP; • 1.4 4-fold test substance solutions: 100-fold test substance solutions in different gradient concentrations were formulated with 100% DMSO, and diluted by 25 folds with 1-fold kinase buffer to form 4-fold test substance solutions in different gradient concentrations. • 1.5 Preparation of detection solution: a detection solution containing 2-fold final concentrations of EDTA and 4EBP1 phosphorylated antibody was formulated, wherein the final concentration for EDTA was 8 mM, and the final concentration for the 4EBP phosphorylated antibody was 2 nM. 2. Procedure • 2.1 To each well of a 384-well plate was added 2.5 μL of the 4-fold test substance solutions in gradient concentrations. The replication was made. • 2.2 To each well was added 2.5 μL of 4-fold kinase solution, and then the plate was incubated for 10 mins; • 2.3 Then to each well was added 5 μL/of 2-fold substrate and ATP solution, and then the plate was incubated at room temperature for 1 hour; • 2.4 Finally, 10 μL of the detection solution was added to terminate the reaction. After 60 mins, the data Lance signal ([…]) was read from Envision. 3 Data treatment Inhibition rate (%)=[…] • wherein: • maximum refers to the reading at the DMSO control well. • minimum refers to the reading at the control well without kinase, • The data was input into Graphpad Prism 5.0 to plot and obtain the curve and IC50 value. PI3Kα Enzymatic Assay 1. […] After 15 mins, the data Lance signal ([…]) was read from Envision. 3 Data treatment Inhibition rate (%)=100−(sample value−minimum)/(maximum−minimum)×100 • wherein: • maximum refers to the reading at the control well without kinase, • minimum refers to the reading at the DMSO control well, • The data was input into Graphpad Prism 5.0 to plot and obtain the curve and IC50 value. […]

Muscarinic M1, sequence (P11229 whole entry): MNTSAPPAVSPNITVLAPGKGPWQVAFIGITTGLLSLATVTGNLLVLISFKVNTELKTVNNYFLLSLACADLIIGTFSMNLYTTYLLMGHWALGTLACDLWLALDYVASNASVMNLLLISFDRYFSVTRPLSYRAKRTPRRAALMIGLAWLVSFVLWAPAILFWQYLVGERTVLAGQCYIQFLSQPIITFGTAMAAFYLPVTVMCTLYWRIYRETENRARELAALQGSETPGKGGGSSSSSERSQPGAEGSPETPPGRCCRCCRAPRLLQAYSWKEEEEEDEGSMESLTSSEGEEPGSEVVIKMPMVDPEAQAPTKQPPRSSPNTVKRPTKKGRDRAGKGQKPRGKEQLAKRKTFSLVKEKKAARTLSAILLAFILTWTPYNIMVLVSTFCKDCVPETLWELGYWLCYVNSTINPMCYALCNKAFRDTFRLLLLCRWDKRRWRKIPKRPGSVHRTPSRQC

| SMILES | inhibition at 10 µM (Muscarinic M1) | inhibition at 10 µM (Adenosine A1) | inhibition at 10 µM (Potassium Channel hERG) | inhibition at 10 µM [1] | inhibition at 10 µM (Muscarinic M2) | inhibition at 10 µM [2] | Inhibitory rate (%), Calcium Channel L-Type, Dihydropyridine [3] | Inhibitory rate (%), Transporter, GABA (Transporter, GABA) | pIC50 (mTOR) |
| --- | --- | --- | --- | --- | --- | --- | --- | --- | --- |
| Nc1ccc(-c2ccc3ncc4c(=O)[nH]c(=O)n(-c5cccc(C(F)(F)F)c5)c4c3n2)cn1 [Compound 5, 9-(6-aminopyridin-3-yl)-1-(3-(trifluoromethyl)phenyl)pyrimido[5,4-c][1,5]naphthyridine-2,4(1H,3H)-dione] | 18% | 20% | 2% | 25% | -4% | 1% | 56% | 12% | – |
| O=c1[nH]c(=O)n(-c2cccc(C(F)(F)F)c2)c2c1cnc1ccc(-c3cnc4[nH]ccc4c3)nc12 [Compound 30, 9-(1H-pyrrolo[2,3-b]pyridin-5-yl)-1-(3-(trifluoromethyl)phenyl)pyrimido[5,4-c][1,5]naphthyridine-2,4(1H,3H)-dione] | – | – | – | – | – | – | – | – | 8.95 |
